Measurements from patent US7932266B2, “Isoquinoline derivatives as calpain inhibitors” (Consejo Superior de Investigaciones Cientificas, priority 2004, dated 2011).

Assays:
[1] = target: T1, calpain I from porcine erythrocyte (Sus scrofa, UniProt P35750); experiment: Enzyme activity test: inhibition of calpain (fluorimetric, BODIPY-FL casein substrate); format: biochemical; details: 7 inhibitor concentrations between 10 nM and 200 μM
T1 construct: calpain I from porcine erythrocyte (Calbiochem, Cat No 208712) was used as enzyme; purchased Calbiochem 208712; host or cells: porcine erythrocyte (natural source)
T1 sequence (P35750 1-714): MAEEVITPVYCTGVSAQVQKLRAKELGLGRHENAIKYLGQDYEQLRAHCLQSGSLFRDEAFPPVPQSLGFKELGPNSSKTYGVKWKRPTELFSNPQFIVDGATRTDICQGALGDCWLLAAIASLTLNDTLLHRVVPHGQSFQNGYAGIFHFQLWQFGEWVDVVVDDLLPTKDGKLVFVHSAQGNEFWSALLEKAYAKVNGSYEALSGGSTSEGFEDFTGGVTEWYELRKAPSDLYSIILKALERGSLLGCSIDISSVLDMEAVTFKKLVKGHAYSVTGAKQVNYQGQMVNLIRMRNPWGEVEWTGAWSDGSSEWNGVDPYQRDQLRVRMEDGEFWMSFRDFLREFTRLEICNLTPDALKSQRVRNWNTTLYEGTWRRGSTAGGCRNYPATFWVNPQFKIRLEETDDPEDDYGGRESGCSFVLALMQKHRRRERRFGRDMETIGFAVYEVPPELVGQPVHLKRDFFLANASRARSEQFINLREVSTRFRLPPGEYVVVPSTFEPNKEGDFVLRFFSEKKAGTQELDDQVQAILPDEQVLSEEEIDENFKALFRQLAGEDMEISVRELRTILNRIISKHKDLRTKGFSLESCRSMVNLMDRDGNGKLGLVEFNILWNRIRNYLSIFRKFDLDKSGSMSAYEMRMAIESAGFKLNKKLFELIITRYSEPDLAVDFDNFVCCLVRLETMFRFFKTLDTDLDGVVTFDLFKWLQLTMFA
T1 sequence (P04574 1-266 partner): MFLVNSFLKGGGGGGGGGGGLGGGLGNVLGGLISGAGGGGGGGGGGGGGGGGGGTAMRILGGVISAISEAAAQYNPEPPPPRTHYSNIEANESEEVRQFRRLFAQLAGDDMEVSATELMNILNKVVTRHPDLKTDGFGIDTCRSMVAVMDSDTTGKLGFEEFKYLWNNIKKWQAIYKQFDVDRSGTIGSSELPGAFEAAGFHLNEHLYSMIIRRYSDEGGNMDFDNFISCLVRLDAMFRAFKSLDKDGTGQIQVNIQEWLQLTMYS
From the text: The capacity to inhibit calpain has been quantified in terms of the value of IC50, which is defined as the concentration of inhibitor that reduces the catalytic activity of an enzyme by half. The lower the value of IC50, the more powerful the inhibitor. Inhibition results on calpain I (the most relevant from a physiological point of view) of some compounds of the present invention are shown in table 1 and in FIG. 1. Given that calpain II, also known as milli-calpain, needs a greater amount of Ca^2+ for activation, it might not possibly have such a relevant physiological role since such a concentration of Ca^2+ would cause cell death before the milli-calpain could become activated. For this reason, the inhibition tests have been performed for calpain I, though they can be extrapolated for calpain II.
The calpain inhibition capacity has been quantified in terms of the value of IC50, which is defined as the concentration of inhibitor that reduces the catalytic activity of an enzyme by half. The lower the value of IC50, the more powerful the inhibitor. Inhibition results on calpain I (the most relevant from a physiological point of view) of some compounds of the present invention are shown in table 1 and in FIG. 1.
The experiments were conducted spectrofluorimetrically using a Spectrofluor Tecan Corp 93382 spectrofluorimeter, exciting at […] and measuring at […]. Casein marked with BODIPY-FL® (Molecular Probes) was used as substrate and calpain I from porcine erythrocyte (Calbiochem, Cat No 208712) was used as enzyme. The freeze-dried substrate is component A of the protease assay kit EnzChek® green fluorescence from Molecular Probes (reference # E-6638); component B, known as 20× digestion buffer, contains 13 mL of 200 mM Tris-HCl, pH 7.8 and 2 mM sodium azide. The commercial calpain I that was used has a concentration of 1 mg in 1 mL of aqueous solution (the solution is 20 mM imidazol-HCl, pH 6.8, 1 mM EDTA, 1 mM EGTA, 5 mM β-mercaptoethanol, containing 30% glycerine).
2.5 mL of 20× digestion buffer (component B of the kit from Molecular Probes) was diluted with water to a total volume of 50 mL.
200 μg of freeze-dried substrate (component A of the kit from Molecular Probes) was dissolved in 200 μL of phosphate saline buffer. This solution was decanted into a graduated flask and diluted with the digestion solution to a total volume of 40 mL.
20 μL of commercial solution of calpain was diluted with the digestion solution to a total volume of 200 μL.
The inhibitor was dissolved in DMSO. Each inhibitor was assayed at 7 different concentrations between 10 nM and 200 μM.
All the data were obtained measuring the variation in fluorescence with time. The use of a multi-cell device and Eppendorf multi-channel pipettes permitted measurement of the variation in fluorescence in up to 64 experiments. In this way, the control experiment and the experiments with the different concentrations of inhibitor was carried out in the same set of measurements. All the experiments were conducted twice.
The control experiment was carried out mixing 180 μL of casein solution and 5 μL of calpain solution. The reaction was initiated by the addition of 10 μL of a 50 μM solution of CaCl2 in water, and the fluorescence was measured from the moment of the addition of Ca^2+ (time=0) and for 250-300 seconds (measuring during 20 kinetic cycles). The variation in fluorescence (ΔF) was represented against time (t). In order to test the effect of DMSO on enzyme activity, additional control experiments were conducted adding DMSO (in the quantities used in the experiments with the inhibitors), with the same result being obtained as in the control experiment.
180 μL of casein solution, 5 μL of calpain solution and 5 μL of inhibitor solution (of variable concentration) were mixed together. […]

IC50 [1] [µM]	melting point [°C]	Compound
0.742	177 to 180	CC[C@H](C)[C@@H]1NC(=O)c2ccccc2/C1=C/C(=O)Nc1ccccc1-c1ccccc1NC(=O)/C=C1/c2ccccc2C(=O)N[C@H]1[C@@H](C)CC [Compound 18, (S,S,S,S,Z,Z)-2,2′-bis-[(3-sec-butyl-1-oxo-2,3-dihydro-1H-isoquinolin-4-yliden)-acetylamino]biphenyl]
38	50 to 53	CC[C@H](C)[C@@H]1NC(=S)c2ccccc2/C1=C/C(=O)OC [Compound 28, methyl (S,S,Z)-(3-sec-butyl-1-thioxo-2,3-dihydro-1H-isoquinolin-4-yliden)-acetate]
59	85 to 87	CC[C@H](C)[C@@H]1NC(=O)c2ccccc2/C1=C/C(=O)OCC#CCOC(=O)/C=C1/c2ccccc2C(=O)N[C@H]1[C@@H](C)CC [Compound 13]
–	215 to 216	CC[C@H](C)[C@@H]1NC(=O)c2ccccc2/C1=C/C(=O)O [Compound 8, (S,S,Z)-(3-sec-butyl-1-oxo-2,3-dihydro-1H-isoquinolin-4-yliden)-acetic acid]
124	53 to 54	CC[C@H](C)[C@@H]1NC(=O)c2ccccc2/C1=C/C(=O)OCc1ccccc1 [Compound 11, benzyl (S,S,Z)-(3-sec-butyl-1-oxo-2,3-dihydro-1H-isoquinolin-4-yliden)-acetate]
7	–	CC[C@H](C)[C@@H]1NC(=O)c2ccccc2/C1=C/C(=O)Nc1ccccc1-c1ccccc1NC(=O)[C@@H](N)Cc1ccccc1 [Compound 23, (S,S,S,Z)-2-amino-N-{2′-[2-(3-sec-butyl-1-oxo-2,3-dihydro-1H-isoquinolin-4-yliden)-acetylamino]-biphenyl-2-yl}-3-phenyl-propionamide]
0.626	174 to 176	CC[C@H](C)[C@@H]1NC(=O)c2ccccc2/C1=C/C(=O)N[C@H](C(=O)N[C@@H](Cc1ccccc1)C(=O)OC)C(C)C [Compound 27, methyl (S,S,S,S,Z)-2-{2-[2-(3-sec-butyl-1-oxo-2,3-dihydro-1H-isoquinolin-4-yliden)-acetylamino]-3-methyl-butirylamino}-3-phenyl-propionate]
0.025	–	CC[C@H](C)[C@@H]1NC(=O)c2ccccc2/C1=C/C(=O)OC [Compound 7, methyl (S,S,Z)-(3-sec-butyl-1-oxo-2,3-dihydro-1H-isoquinolin-4-yliden)-acetate]
85	79 to 81	CCC(C)C1NC(=O)c2ccccc2/C1=C/C(=O)OC/C=C\COC(=O)/C=C1/c2ccccc2C(=O)N[C@H]1[C@@H](C)CC (some centres unmarked) [Compound 12]
–	193 to 196	CC[C@H](C)[C@@H]1NC(=S)c2ccccc2/C1=C/C(=O)O [Compound 29, (S,S,Z)-(3-sec-butyl-1-thioxo-2,3-dihydro-1H-isoquinolin-4-yliden)-acetic acid]
17	110 to 113	CC[C@H](C)[C@@H]1NC(=O)c2ccccc2/C1=C/C(=O)Nc1ccccc1-c1ccccc1NC(=O)[C@@H](N)C(C)C [Compound 22, (S,S,S,Z)-2-amino-N-{2′-[2-(3-sec-butyl-1-oxo-2,3-dihydro-1H-isoquinolin-4-yliden)-acetylamino]-biphenyl-2-yl}-3-methyl-butyramide]
140	90 to 94	CC[C@H](C)[C@@H]1NC(=O)c2ccccc2/C1=C/C(=O)NCc1ccccc1 [Compound 15, (S,S,Z)-N-benzyl-2-(3-sec-butyl-1-oxo-2,3-dihydro-1H-isoquinolin-4-yliden)-acetamide]
0.447	–	CC[C@H](C)[C@H](NC(=O)/C=C1/c2ccccc2C(=O)N[C@H]1[C@@H](C)CC)C(=O)N[C@H](C(=O)OC)[C@@H](C)CC [Compound 25, methyl (S,S,S,S,S,Z)-2-{2-[2-(3-sec-butyl-1-oxo-2,3-dihydro-1H-isoquinolin-4-yliden)-acetylamino]-3-methyl-pentanoylamino}-3-methyl-pentanoate]
0.159	151 to 154	CC[C@H](C)[C@H](NC(=O)/C=C1/c2ccccc2C(=O)N[C@H]1[C@@H](C)CC)C(=O)N[C@H](C(=O)N[C@H](C(=O)OC)[C@@H](C)CC)[C@@H](C)CC [Compound 26, methyl (S,S,S,S,S,S,S,S,S,Z)-2-(2-{2-[2-(3-sec-butyl-1-oxo-2,3-dihydro-1H-isoquinolin-4-yliden)-acetylamino]-3-methyl-pentanoylamino}-3-methyl-pentanoylamino)-3-methyl-pentanoate]
–	178 to 181	CC[C@H](C)[C@H](NC(=O)/C=C1/c2ccccc2C(=S)N[C@H]1[C@@H](C)CC)C(=O)N[C@H](C(=O)OC)[C@@H](C)CC [Compound 30, methyl (S,S,S,S,S,S,Z)-2-{2-[2-(3-sec-butyl-1-thioxo-2,3-dihydro-1H-isoquinolin-4-yliden)-acetylamino]-3-methyl-pentanoylamino}-3-methyl-pentanoate]
50	–	CC[C@H](C)[C@H](N)C(=O)Nc1ccccc1-c1ccccc1NC(=O)/C=C1/c2ccccc2C(=O)N[C@H]1[C@@H](C)CC [Compound 24, (S,S,S,S,Z)-2-amino-N-{2′-[2-(3-sec-butyl-1-oxo-2,3-dihydro-1H-isoquinolin-4-yliden)-acetylamino]-biphenyl-2-yl}-3-methyl-pentanamide]
–	110 to 112	CCCCOC(=O)/C=C1/c2ccccc2C(=O)N[C@H]1[C@@H](C)CC [Compound 10, 1-butyl (S,S,Z)-(3-sec-butyl-1-oxo-2,3-dihydro-1H-isoquinolin-4-yliden)-acetate]
0.086	–	CC[C@H](C)[C@@H]1NC(=O)c2ccccc2/C1=C/C(=O)Nc1ccccc1-c1ccccc1N [Compound 17, (S,S,Z)-N-(2′-amino-biphenyl-2-yl)-2-(3-sec-butyl-1-oxo-2,3-dihydro-1H-isoquinolin-4-yliden)-acetamide]

Compound	IC50 [1] [µM]	melting point [°C]
CC[C@H](C)[C@@H]1NC(=O)c2ccccc2/C1=C/C(=O)OCc1ccc(COC(=O)/C=C2/c3ccccc3C(=O)N[C@H]2[C@@H](C)CC)cc1 [Compound 14]	5	213 to 215
